This is an account of results in patent publication US7875647B2, “Heteroaryl-pyrazole derivatives as cannabinoid CB1 receptor antagonists” (Green Cross Corporation, priority 2006, dated 2011).

T1 sequence (P20272 whole entry): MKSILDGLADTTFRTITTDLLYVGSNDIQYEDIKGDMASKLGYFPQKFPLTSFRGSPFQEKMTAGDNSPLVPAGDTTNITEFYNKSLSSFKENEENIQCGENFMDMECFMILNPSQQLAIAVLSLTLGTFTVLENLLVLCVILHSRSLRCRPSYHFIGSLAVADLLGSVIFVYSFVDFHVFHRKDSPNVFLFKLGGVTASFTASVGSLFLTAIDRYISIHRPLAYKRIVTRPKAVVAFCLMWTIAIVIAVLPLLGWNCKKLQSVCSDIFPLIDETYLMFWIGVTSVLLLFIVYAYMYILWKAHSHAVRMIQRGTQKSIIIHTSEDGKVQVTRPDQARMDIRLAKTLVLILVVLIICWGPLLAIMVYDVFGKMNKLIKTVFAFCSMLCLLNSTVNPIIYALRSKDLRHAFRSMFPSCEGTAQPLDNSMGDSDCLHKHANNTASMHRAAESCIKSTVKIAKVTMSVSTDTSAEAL

The first experiment has as its target T1, Cannabinoid-1 receptor (CB1R) (Rattus norvegicus, UniProt P20272).
T1 construct: The tissue obtained from the brain of SD rats was homogenized; from tissue; host or cells: brain of SD rats (membrane pellet of the homogenate)
Briefly: Cannabinoid-1 receptor (CB1R) binding affinity assay ([3H]CP-55940, rat CB-1 receptor binding protocol). To be noted: IC50(nM), brain tissue of SD rats, [3H]CP-55940, 30° C. 60 min.
A word on the IC50: it is the concentration at which inhibition is half-maximal. `CCCCC(C)c1nnc(-c2nn(-c3ccccc3Cl)c(-c3ccc(Cl)cc3)c2C)s1` (stereo not drawn) [Example 411, 2-(1-(2-chlorophenyl)-5-(4-chlorophenyl)-4-methyl-1H-pyrazol-3-yl)-5-(hexan-2-yl)-1,3,4-thiadiazole] registered a concentration for half-maximal inhibition (IC50) of 13.5 nM.

`CCCC(C)c1nnc(-c2nn(-c3ccc(Cl)cc3Cl)c(-c3ccc(Cl)cc3)c2CC)s1` (stereo not drawn) [Example 412, 2-(5-(4-chlorophenyl)-1-(2,4-dichlorophenyl)-4-ethyl-1H-pyrazol-3-yl)-5-(pentan-2-yl)-1,3,4-thiadiazole] showed an IC50 of 11 nM.

The same experiment, now with this note: brain tissue of SD rats, [3H]CP-55940, 30° C. 60 min; read-out: IC50.
As for `CCc1c(-c2nnc(C3CCCCCC3)s2)nn(-c2ccc(Cl)cc2Cl)c1-c1ccc(Br)cc1` [Example 400, 2-(5-(4-bromophenyl)-1-(2,4-dichlorophenyl)-4-ethyl-1H-pyrazol-3-yl)-5-cycloheptyl-1,3,4-thiadiazole], the concentration for half-maximal inhibition (IC50) was 5.26 nM.

As for `Cc1c(-c2nnc(C(C)(C)c3ccccc3)s2)nn(-c2ccc(Cl)cc2Cl)c1-c1ccc(Cl)cc1` [Example 401, 2-(5-(4-chlorophenyl)-1-(2,4-dichlorophenyl)-4-methyl-1H-pyrazol-3-yl)-5-(2-phenylpropan-2-yl)-1,3,4-thiadiazole], the 50% inhibitory concentration (IC50) stood at 6.9 nM.

Turning to `Cc1c(-c2nnc(C(C)(C)c3ccc(Cl)cc3)s2)nn(-c2ccc(Cl)cc2Cl)c1-c1ccc(Cl)cc1` [Example 402, 2-(5-(4-chlorophenyl)-1-(2,4-dichlorophenyl)-4-methyl-1H-pyrazol-3-yl)-5-(2-(4-chlorophenyl)propan-2-yl)-1,3,4-thiadiazole], the IC50 is 5.34 nM.

With `CCC(C)c1nnc(-c2nn(-c3ccc(Cl)cc3Cl)c(-c3ccc(Br)cc3)c2C)s1` (stereo not drawn) [Example 403, 2-(5-(4-bromophenyl)-1-(2,4-dichlorophenyl)-4-methyl-1H-pyrazol-3-yl)-5-sec-butyl-1,3,4-thiadiazole], the IC50 was found to be 10.7 nM.

With `CCc1c(-c2nnc(C(C)(C)c3ccccc3)s2)nn(-c2ccc(Cl)cc2Cl)c1-c1ccc(Br)cc1` [Example 404, 2-(5-(4-bromophenyl)-1-(2,4-dichlorophenyl)-4-ethyl-1H-pyrazol-3-yl)-5-(2-phenylpropan-2-yl)-1,3,4-thiadiazole], the IC50 was 5.15 nM.

`Cc1c(-c2nnc(C(C)(C)C)s2)nn(-c2ccccc2Cl)c1-c1ccc(Cl)cc1` [Example 405, 2-tert-butyl-5-(1-(2-chlorophenyl)-5-(4-chlorophenyl)-4-methyl-1H-pyrazol-3-yl)-1,3,4-thiadiazole]: the 50% inhibitory concentration (IC50) turned out to be 14.7 nM.

In the case of `CCCCC(C)(C)c1nnc(-c2nn(-c3ccc(Cl)cc3Cl)c(-c3ccc(Cl)cc3)c2C)s1` [Example 406, 2-(5-(4-chlorophenyl)-1-(2,4-dichlorophenyl)-4-methyl-1H-pyrazol-3-yl)-5-(2-methylhexan-2-yl)-1,3,4-thiadiazole], the 50% inhibitory concentration (IC50) was found to be 27.4 nM.

Consider `CCC(C)c1nnc(-c2nn(-c3ccccc3Cl)c(-c3ccc(Cl)cc3)c2C)s1` (stereo not drawn) [Example 407, 2-sec-butyl-5-(1-(2-chlorophenyl)-5-(4-chlorophenyl)-4-methyl-1H-pyrazol-3-yl)-1,3,4-thiadiazole], for which the 50% inhibitory concentration (IC50) was determined as 18.4 nM.

`Cc1c(-c2nnc(C3CCCCC3)s2)nn(-c2ccccc2Cl)c1-c1ccc(Cl)cc1` [Example 408, 2-(1-(2-chlorophenyl)-5-(4-chlorophenyl)-4-methyl-1H-pyrazol-3-yl)-5-cyclohexyl-1,3,4-thiadiazole]: the IC50 worked out at 61 nM.

In the case of `Cc1c(-c2nnc(C3CCC3)s2)nn(-c2ccccc2Cl)c1-c1ccc(Cl)cc1` [Example 409, 2-(1-(2-chlorophenyl)-5-(4-chlorophenyl)-4-methyl-1H-pyrazol-3-yl)-5-cyclobutyl-1,3,4-thiadiazole], the half-maximal inhibitory concentration (IC50) was found to be 58.1 nM.

For `CCC(C)(C)c1nnc(-c2nn(-c3ccccc3Cl)c(-c3ccc(Cl)cc3)c2C)s1` [Example 410, 2-(1-(2-chlorophenyl)-5-(4-chlorophenyl)-4-methyl-1H-pyrazol-3-yl)-5-tert-pentyl-1,3,4-thiadiazole], the IC50 turned out to be 11.7 nM.

Regarding `CCCC(C)c1nnc(-c2nn(-c3ccc(Cl)cc3Cl)c(-c3ccc(Br)cc3)c2C)s1` (stereo not drawn) [Example 413, 2-(5-(4-bromophenyl)-1-(2,4-dichlorophenyl)-4-methyl-1H-pyrazol-3-yl)-5-(pentan-2-yl)-1,3,4-thiadiazole], the IC50 was 14.6 nM.

With `CCCC(C)c1nnc(-c2nn(-c3ccc(Cl)cc3Cl)c(-c3ccc(Br)cc3)c2CC)s1` (stereo not drawn) [Example 414, 2-(5-(4-bromophenyl)-1-(2,4-dichlorophenyl)-4-ethyl-1H-pyrazol-3-yl)-5-(pentan-2-yl)-1,3,4-thiadiazole], the half-inhibitory concentration (IC50) is 9.18 nM.

Regarding `CCCCC(C)(C)c1nnc(-c2nn(-c3ccccc3Cl)c(-c3ccc(Cl)cc3)c2C)s1` [Example 415, 2-(1-(2-chlorophenyl)-5-(4-chlorophenyl)-4-methyl-1H-pyrazol-3-yl)-5-(2-methylhexan-2-yl)-1,3,4-thiadiazole], the IC50 was found to be 8.02 nM.

Regarding `Cc1c(-c2nnc(C(C)(C)c3ccccc3)s2)nn(-c2ccccc2Cl)c1-c1ccc(Cl)cc1` [Example 416, 2-(1-(2-chlorophenyl)-5-(4-chlorophenyl)-4-methyl-1H-pyrazol-3-yl)-5-(2-phenylpropan-2-yl)-1,3,4-thiadiazole], the IC50 is 9.27 nM.

With `CCC(C)(C)c1nnc(-c2nn(-c3ccc(Cl)cc3)c(-c3ccc(Br)cc3)c2C)s1` [Example 417, 2-(5-(4-bromophenyl)-1-(4-chlorophenyl)-4-methyl-1H-pyrazol-3-yl)-5-tert-pentyl-1,3,4-thiadiazole], the concentration for half-maximal inhibition (IC50) amounted to 134 nM.

Take `CCC(C)c1nnc(-c2nn(-c3ccc(Cl)cc3)c(-c3ccc(Br)cc3)c2C)s1` (stereo not drawn) [Example 418, 2-(5-(4-bromophenyl)-1-(4-chlorophenyl)-4-methyl-1H-pyrazol-3-yl)-5-sec-butyl-1,3,4-thiadiazole]: the half-maximal inhibitory concentration (IC50) was found to be 465 nM.

Regarding `COC(C)(C)c1nnc(-c2nn(-c3ccc(Cl)cc3Cl)c(-c3ccc(Cl)cc3)c2C)s1` [Example 419, 2-(5-(4-chlorophenyl)-1-(2,4-dichlorophenyl)-4-methyl-1H-pyrazol-3-yl)-5-(2-methoxypropan-2-yl)-1,3,4-thiadiazole], the IC50 was found to be 62.1 nM.

For `CCC(C)(C)c1nnc(-c2nn(-c3ccc(Cl)cc3Cl)c(-c3ccccc3)c2C)s1` [Example 420, 2-(1-(2,4-dichlorophenyl)-4-methyl-5-phenyl-1H-pyrazol-3-yl)-5-tert-pentyl-1,3,4-thiadiazole], the IC50 worked out at 112 nM.

As for `Cc1c(-c2nnc(C(C)(C)C)s2)nn(-c2ccc(Cl)cc2Cl)c1-c1ccccc1` [Example 421, 2-tert-butyl-5-(1-(2,4-dichlorophenyl)-4-methyl-5-phenyl-1H-pyrazol-3-yl)-1,3,4-thiadiazole], the IC50 worked out at 160 nM.

Regarding `CCC(C)c1nnc(-c2nn(-c3ccc(Cl)cc3Cl)c(-c3ccccc3)c2C)s1` (stereo not drawn) [Example 422, 2-sec-butyl-5-(1-(2,4-dichlorophenyl)-4-methyl-5-phenyl-1H-pyrazol-3-yl)-1,3,4-thiadiazole], the IC50 came out at 226 nM.

For `Cc1c(-c2nnc(C3CCC3)s2)nn(-c2ccc(Cl)cc2Cl)c1-c1ccccc1` [Example 423, 2-cyclobutyl-5-(1-(2,4-dichlorophenyl)-4-methyl-5-phenyl-1H-pyrazol-3-yl)-1,3,4-thiadiazole], the IC50 stood at 168 nM.

Turning to `Cc1c(-c2nnc(C3CCC3)s2)nn(-c2ccc(Cl)cc2)c1-c1ccc(Br)cc1` [Example 424, 2-(5-(4-bromophenyl)-1-(4-chlorophenyl)-4-methyl-1H-pyrazol-3-yl)-5-cyclobutyl-1,3,4-thiadiazole], the half-maximal inhibitory concentration (IC50) was found to be 966 nM.

Regarding `Cc1c(-c2nnc(C(C)(C)C)s2)nn(-c2ccccc2Cl)c1-c1ccc(Br)cc1` [Example 425, 2-(5-(4-bromophenyl)-1-(2-chlorophenyl)-4-methyl-1H-pyrazol-3-yl)-5-tert-butyl-1,3,4-thiadiazole], the IC50 is 11.2 nM.

For the molecule `Cc1c(-c2nnc(C3CCC3)s2)nn(-c2ccccc2Cl)c1-c1ccc(Br)cc1` [Example 427, 2-(5-(4-bromophenyl)-1-(2-chlorophenyl)-4-methyl-1H-pyrazol-3-yl)-5-cyclobutyl-1,3,4-thiadiazole], the IC50 was 29.6 nM.

`CCC(C)c1nnc(-c2nn(-c3ccccc3Cl)c(-c3ccc(Br)cc3)c2C)s1` (stereo not drawn) [Example 428, 2-(5-(4-bromophenyl)-1-(2-chlorophenyl)-4-methyl-1H-pyrazol-3-yl)-5-sec-butyl-1,3,4-thiadiazole]: the concentration for half-maximal inhibition (IC50) was determined as 15.7 nM.

For `CCC(C)(C)c1nnc(-c2nn(-c3ccccc3Cl)c(-c3ccc(Br)cc3)c2C)s1` [Example 429, 2-(5-(4-bromophenyl)-1-(2-chlorophenyl)-4-methyl-1H-pyrazol-3-yl)-5-tert-pentyl-1,3,4-thiadiazole], the concentration for half-maximal inhibition (IC50) came out at 8.67 nM.

Take `Cc1c(-c2nnc(C3(c4ccc(Cl)cc4)CC3)s2)nn(-c2ccc(Cl)cc2Cl)c1-c1ccc(Cl)cc1` [Example 430, 2-(5-(4-chlorophenyl)-1-(2,4-dichlorophenyl)-4-methyl-1H-pyrazol-3-yl)-5-(1-(4-chlorophenyl)cyclopropyl)-1,3,4-thiadiazole]: the IC50 is 13.9 nM.

On to `Cc1c(-c2nnc(C3(c4ccc(Cl)cc4)CCC3)s2)nn(-c2ccc(Cl)cc2Cl)c1-c1ccc(Cl)cc1` [Example 431, 2-(5-(4-chlorophenyl)-1-(2,4-dichlorophenyl)-4-methyl-1H-pyrazol-3-yl)-5-(1-(4-chlorophenyl)cyclobutyl)-1,3,4-thiadiazole], for which the IC50 came to 7.5 nM.

For the molecule `CCc1c(-c2nnc(C3(c4ccc(Cl)cc4)CC3)s2)nn(-c2ccc(Cl)cc2Cl)c1-c1ccc(Br)cc1` [Example 432, 2-(5-(4-bromophenyl)-1-(2,4-dichlorophenyl)-4-ethyl-1H-pyrazol-3-yl)-5-(1-(4-chlorophenyl)cyclopropyl)-1,3,4-thiadiazole], the IC50 came out at 7.98 nM.

Regarding `Cc1c(-c2nnc(C3(c4ccc(Cl)cc4)CC3)s2)nn(-c2ccccc2Cl)c1-c1ccc(Cl)cc1` [Example 433, 2-(1-(2-chlorophenyl)-5-(4-chlorophenyl)-4-methyl-1H-pyrazol-3-yl)-5-(1-(4-chlorophenyl)cyclopropyl)-1,3,4-thiadiazole], the IC50 was 7.53 nM.
